Test results published in patent US9815788B2, “Anti-angiogenic compounds” (University College Dublin National University of Ireland, …, priority 2012, dated 2017).
“Also recorded” adds a separate entry of the source.

Assays:
[1] = system: OE33R radio-resistant oesophageal adenocarcinoma cells; test: Quantification of glycolysis (ECAR, Seahorse), OE33R; type: cell-based, human; conditions: 10 μM, 24 hours
Method: OE33P radio-sensitive and OE33R radio-resistant oesophageal adenocarcinoma cells were used to test the effects of compounds 11B HCl, 11B CC11 HCl, 11B CC16 HCl, 11B 471 and 11B 268 on glycolysis. Cells were maintained in RPMI media supplemented with 10% foetal calf serum, penicillin (100 U/ml) and streptomycin (100 μg/ml). A total of 11,000 or 13,000 cells, in 100 μl media, were seeded per well in 24 well plates and left to incubate for 24 hours, with an additional 150 μl media added after 5 hours. The media was replaced with solutions containing 10 μM of 11B HCl, […], 11B CC16 HCl, 11B 471, 11B 268 or fresh media as a control. Each drug had 6 replicates. After 24 hours of treatment, media was replaced with modified DMEM supplemented with 0.5 mM glucose. Rates of glycolysis were determined using Seahorse Biosciences metabolism technology. The media was disposed and the cells washed with PBS. The cells were fixed with 1% glutaraldehyde for 15 minutes and then stained with crystal violet for 30 minutes. The plates were blotted and dried overnight. The cells were resuspended with 1% TritonX-100 and shaken for 15 minutes. The absorbance was read on a spectrophotometer at 590 nm. Rates of glycolysis were then normalised to cell number.
OE33P radiosensitive oesophageal adenocarcinoma cells were used to test the effects of the compound 11B_ZHCl on glycolysis. Cells were maintained in RPMI media supplemented with 10% foetal calf serum, penicillin (100 U/ml) and streptomycin (100 μg/ml). A total of 11,000 cells, in 100 μl media, were seeded per well in 24 well plates and left to incubate for 24 hours, with an additional 150 μl media added after 5 hours. The media was replaced with solutions containing 10 μM of 11B_ZHCl or fresh media as a control. Each treatment had 6 replicates. After 24 hours of treatment, media was replaced with modified DMEM supplemented with 0.5 mM glucose. Rates of glycolysis were determined using Seahorse Biosciences metabolism technology. […] The absorbance was read on a spectrophotometer at 590 nm. […] No changes in ECAR were detected in OE33R treated cells.

[2] = system: zebrafish hyaloid vasculature; test: Quantification of primary hyaloid vasculature branch number in Tg(fli1:EGFP) zebrafish; type: in vivo; conditions: for dose-dependent inhibition of development of hyaloid vessels: decreasing doses 20, 10, 7.5, 5, 2.5, 1 and/or 0.5 μM; for inhibition of developmental angiogenesis of the hyaloid vasculature (number of primary hyaloid vessels): typically 10 μM or 5 μM, from 24 hpf, vs DMSO control
Method: (§1) All experiments were carried out under ethical approval granted by the UCD animal research ethics committee. Tg(fli1:EGFP) zebrafish were maintained according to standard procedures on a 14 hr light/10 hr dark cycle at 28° C. Embryos were obtained by natural spawning and developmental stages established by time and morphological criteria. […] Larvae were euthanised, and fixed in 4% PFA at 4° C. overnight before analysis.
Overall patterning of the vasculature (fin, gut and intersegmental vessels) was examined for abnormalities. Right lenses were dissected from the larvae and transferred to depression slides for observation under epi-fluorescence in the Olympus SZX16. Patterning of the hyaloid vessels on the treated larval lenses was compared to DMSO controls and the archetypal pattern previously described (Alvarez et al., 2007; Alvarez et al., 2009).
as §1, with “analysis. Lenses were dissected from the larvae and transferred to depression slides for observation under epi-fluorescence in the Olympus SZX16. Patterning of the hyaloid vessels on the treated larval lenses was compared to DMSO controls and the archetypal pattern previously described (Alvarez et al., 2007; Alvarez et al., 2009).” for “analysis.”

[3] = system: OE33R radio-resistant oesophageal adenocarcinoma cells; test: Cell number after 24 hours drug treatment (crystal violet absorbance), OE33R; type: cell-based, human; conditions: 10 μM
Method: (§2) OE33P radio-sensitive and OE33R radio-resistant oesophageal adenocarcinoma cells were used to test the effects of the compounds 11B HCl, […], 11B CC16 HCl, 11B 471 and 11B 268 on cell number. Cells were maintained in RPMI media supplemented with 10% foetal calf serum, penicillin (100 U/ml) and streptomycin (100 gig/ml). A total of 11.000 or 13,000 cells, in 100 μl media, were seeded per well in 24 well plates and left to incubate for 24 hours, with an additional 150 μl media added after 5 hours. The media was replaced with solutions containing 10 μM of 11B HCl, 11B CC11 HCl, 11B CC16 HCl, 11B 471, 11B 268 or fresh media as a control. Each drug had 6 replicates. After 24 hours of treatment, the cells were fixed with 1% glutaraldehyde for 15 minutes and then stained with crystal violet for 30 minutes. The plates were blotted and dried overnight. The cells were resuspended with 1% TritonX-100 and shaken for 15 minutes. The absorbance was read on a spectrophotometer at 590 nm.
(§3) OE33P radiosensitive and OE33R radioresistant cells were used to test the effects of the compound 11B_Z_HCl on toxicity. Cells were maintained in RPMI media supplemented with 10% foetal calf serum, penicillin (100 U/ml) and streptomycin (100 μg/ml). A total of 11,000 cells, in 100 μl media, were seeded per well in 24 well plates and left to incubate for 24 hours, with an additional 150 μl media added after 5 hours. The media was replaced with solutions containing 10 μM of 11B_Z_HCl or fresh media as a control. Each treatment had 6 replicates. After 24 hours of treatment, the cells were fixed with 1% glutaraldehyde for 15 minutes and then stained with crystal violet for 30 minutes. The plates were blotted and dried overnight. The cells were resuspended with 1% TritonX-100 and shaken for 15 minutes. The absorbance was read on a spectrophotometer at 590 nm.

[4] = system: OE33P radio-sensitive oesophageal adenocarcinoma cells; test: Cell number after 24 hours drug treatment (crystal violet absorbance), OE33P; type: cell-based, human; conditions: 10 μM
Method: as §2, §3

[5] = system: zebrafish intersegmental vessels; test: Quantification of intersegmental vessel number in zebrafish; type: in vivo; conditions: 10 μM, from 6 hpf
Method: […] Larvae were manually dechorionated, euthanised, and fixed in 4% PFA at 4° C. overnight before analysis. The larvae were then washed with PBS and transferred to depression slides for observation under epi-fluorescence in an Olympus SZX16 fluorescent microscope. The number of intersegmental vessels was counted and the average number was graphed for each drug.
Larvae were manually dechorionated, euthanised, and fixed in 4% PFA at 4° C. overnight before analysis. The larvae were then washed with PBS and transferred to depression slides for observation under epi-fluorescence in an Olympus SZX16 fluorescent microscope. The number of intersegmental vessels was counted and the average number was graphed for each drug.

[6] = system: OE33P radiosensitive oesophageal adenocarcinoma cells; test: Quantification of oxidative phosphorylation (OCR, Seahorse), OE33P; type: cell-based, human; conditions: 10 μM, 24 hours
Method: OE33P radiosensitive and OE33R radio-resistant oesophageal adenocarcinoma cells were used to test the effects of the compounds 11B HCl, 11B CC11 HCl, 11B CC16 HCl, 11B 471 and 11B 268 on oxidative phosphorylation. Cells were maintained in RPMI media supplemented with 10% foetal calf serum, penicillin (100 U/ml) and streptomycin (100 μg/ml). A total of 11,000-13,000 cells, in 100 μl media, were seeded per well in 24 well plates and left to incubate for 24 hours, with an additional 150 μl media added after 5 hours. The media was replaced with solutions containing 10 μM of 11B HCl, 11B CC11 HCl, 11B CC16 HCl, 11B 471, 11B 268 or fresh media as a control. Each drug had 6 replicates. After 24 hours of treatment, media was replaced with modified DMEM supplemented with 0.5 mM glucose. Rates of oxidative phosphorylation were determined using Seahorse Biosciences metabolism technology. The media was disposed and the cells washed with PBS. The cells were fixed with 1% glutaraldehyde for 15 minutes and then stained with crystal violet for 30 minutes. The plates were blotted and dried overnight. The cells were resuspended with 1% TritonX-100 and shaken for 15 minutes. The absorbance was read on a spectrophotometer at 595 nm. Rates of oxidative phosphorylation were then normalised to cell number.
OE33P radiosensitive and OE33R radioresistant oesophageal adenocarcinoma cells were used to test the effects of the compound 11B_Z_HCl on oxidative phosphorylation. Cells were maintained in RPMI media supplemented with 10%0/foetal calf serum, penicillin […]) and streptomycin (100 μg/ml). A total of 11,000 cells, in 100 μl media, were seeded per well in 24 well plates and left to incubate for 24 hours, with an additional 150 μl media added after 5 hours. The media was replaced with solutions containing 10 μM of 11B_Z_HCl or fresh media as a control. Each treatment had 6 replicates. After 24 hours of treatment, media was replaced with modified DMEM supplemented with 0.5 mM glucose. Rates of oxidative phosphorylation were determined using Seahorse Biosciences metabolism technology. Rates of oxidative phosphorylation were then normalised to cell number.

| SMILES | extracellular acidification rate (ECAR), a measure of glycolysis [1] | dose-dependent inhibition of development of hyaloid vessels [2] | inhibition of developmental angiogenesis of the hyaloid vasculature (number of primary hyaloid vessels) [2] | cell number, measured by % absorbance [3] | cell number, measured by % absorbance [4] | inhibition of developmental angiogenesis of intersegmental vessels (number of intersegmental vessels) [5] | oxygen consumption rate (OCR), a measure of oxidative phosphorylation [6] |
| --- | --- | --- | --- | --- | --- | --- | --- |
| C(=Cc1ccc2ccccc2n1)c1cccnc1 [Compound 11B-471, 2-[2-(3-pyridinyl)vinyl]quinoline] | significantly reduce | inhibit developmental angiogenesis of zebrafish hyaloid vasculature in a dose-dependent statistically significant manner | inhibit developmental angiogenesis of the zebrafish hyaloid vasculature in a statistically significant manner | did not significantly reduce cell number | did not significantly reduce cell number | inhibit developmental angiogenesis of zebrafish intersegmental vessels in a statistically significant manner | – |
| COc1ccccc1C=Cc1ccc2ccccc2n1 [Compound 11B-268, 2-(2-(2-Methoxyphenyl)vinyl)quinoline] | – | dose-dependent effect; also recorded: inhibit developmental angiogenesis of zebrafish hyaloid vasculature in a dose-dependent statistically significant manner | inhibit developmental angiogenesis of the zebrafish hyaloid vasculature in a statistically significant manner | did not significantly reduce cell number | did not significantly reduce cell number | – | significantly reduce |
